Among the data in ChEMBL document CHEMBL5257089, “Gamabufotalin Induces Apoptosis and Cytoprotective Autophagy through the mTOR Signaling Pathway in Hepatocellular Carcinoma” (J Nat Prod, 2023) are Activity and viability values, retold here.

The structures appear in SMILES notation. Activity calls are given as the source filed them. The rule behind the calls is not given here.

For series [1], the system named is Hep 3B2. The series is described as follows: Induction of autophagic flux in human Hep3B cells harbouring mCherry-egfp-LC3 assessed as increase in yellow puncta ratio at 10 nM by fluorescence imaging based assay. In kind it is functional, cell-based.
Series [2] relates to Huh-7. The series is described as follows: Induction of autophagic flux in human Huh-7 cells assessed as rescue of LC3-II accumulation at 10 uM incubated for 48 hrs in presence of gamabufotalin by Western blot analysis. Format: functional, cell-based. In general terms: Immunoblotting shows a protein as a band on a membrane.
Series [3] concerns Hep 3B2. The series can be described thus: Induction of autophagic flux in human Hep3B cells assessed as increase in number of autophagic vesicles at 10 nM by transmission electron microscopic analysis. In kind it is functional, cell-based.
The subject of series [4] is Huh-7. The series is described as follows: Induction of apoptosis in human Huh-7 cells assessed as necrotic cells at 10 nM incubated for 48 hrs in presence of gamabufotalin by Annexin V-FITC/PI staining based flow cytometry method (reference value: 1.0%). Format: functional. On the technique in general: In flow cytometry, cells or beads pass a laser one at a time.
In series [5] the test system is Huh-7. The series can be described thus: Induction of autophagy in human Huh-7 cells assessed as reduction in ULK1 phosphorylation level incubated for 48 hrs by immunoblot method. To be noted: dose 0-25 nM. In kind it is functional, cell-based.
The test system of series [6] is Hep 3B2. The series is described as follows: Induction of apoptosis in human Hep3B cells assessed as late apoptotic cells at 25 nM incubated for 48 hrs by Annexin V-FITC/PI staining based flow cytometry method (reference value: 3.5%). Format: functional.
Series [7] concerns Huh-7. The series is described as follows: Induction of autophagy in human Huh-7 cells assessed as reduction in mTOR phosphorylation level incubated for 48 hrs by immunoblot method. Format: functional, cell-based. The conditions noted are these: dose 0-25 nM.
For series [8], the system named is Huh-7. The series is described as follows: Induction of apoptosis in human Huh-7 cells assessed as viable cells at 25 nM incubated for 48 hrs in presence of 4,6-dimorpholino-N-(4-nitrophenyl)-1,3,5-triazin-2-amine by Annexin V-FITC/PI staining based flow cytometry method (reference value: 90.0%). In kind it is functional. To be noted: read-out: Activity.
Series [9] concerns Hep 3B2. The series can be described thus: Induction of apoptosis in human Hep3B cells assessed as […] level at upto 25 nM incubated for 48 hrs by Western blot analysis. Format: functional, cell-based.
Series [10] relates to Huh-7. The series can be described thus: Induction of autophagy in human Huh-7 cells assessed as reduction in autophagic vesicles at 25 nM incubated for 48 hrs in presence of 4,6-dimorpholino-N-(4-nitrophenyl)-1,3,5-triazin-2-amine by transmission electron microscopy based analysis. In kind it is functional, cell-based.
The test system of series [11] is Hep 3B2. The series can be described thus: Antitumor activity against human Hep3B cells xenografted in nude mouse model assessed as upregulation of cleaved caspase-3 expression at 5 mg/kg,ip administered every second day for 3 weeks by Western blot analysis. In kind it is functional, organism-based. (In general: In xenograft studies the graft and the host belong to different species.)

The subject of series [12] is Huh-7. The series can be described thus: Induction of apoptosis in human Huh-7 cells assessed as necrotic cells at 20 nM incubated for 48 hrs by Annexin V-FITC/PI staining based flow cytometry method (reference value: 95.4%). Format: functional.
For series [13], the system named is Huh-7. The series is described as follows: Induction of apoptosis in human Huh-7 cells assessed as upregulation of caspase-3 level […] incubated for 48 hrs in presence of 4,6-dimorpholino-N-(4-nitrophenyl)-1,3,5-triazin-2-amine by immunoblot analysis. Format: functional, cell-based.
The subject of series [14] is Hep 3B2. The series can be described thus: Induction of apoptosis in human Hep3B cells assessed as upregulation of caspase-3 level […] incubated for 48 hrs in presence of 4,6-dimorpholino-N-(4-nitrophenyl)-1,3,5-triazin-2-amine by immunoblot analysis. Format: functional, cell-based.
Series [15] deals with Hep 3B2. The series is described as follows: Induction of apoptosis in human Hep3B cells assessed as early apoptotic cells at 25 nM incubated for 48 hrs by Annexin V-FITC/PI staining based flow cytometry method (reference value: 1.3%). In kind it is functional.
In series [16] the test system is Huh-7. The series can be described thus: Induction of apoptosis in human Huh-7 cells assessed as necrotic cells at 25 nM incubated for 48 hrs by Annexin V-FITC/PI staining based flow cytometry method (reference value: 95.4%). In kind it is functional.
Series [17] deals with Hep 3B2. The series is described as follows: Induction of apoptosis in human Hep3B cells assessed as early apoptotic cells at 25 nM incubated for 48 hrs in presence of 4,6-dimorpholino-N-(4-nitrophenyl)-1,3,5-triazin-2-amine by Annexin V-FITC/PI staining based flow cytometry method (reference value: 1.3%). Format: functional.
For series [18], the system named is Hep 3B2. The series is described as follows: Induction of apoptosis in human Hep3B cells assessed as necrotic cells at 25 nM measured after 48 hrs in presence of Z-VAD-FMK by annexin V-FITC/Propidium iodide staining based flow cytometric analysis (reference value: 0.3%). In kind it is functional.
Series [19] concerns Huh-7. The series is described as follows: Induction of apoptosis in human Huh-7 cells assessed as late apoptotic cells at 25 nM incubated for 48 hrs by Annexin V-FITC/PI staining based flow cytometry method (reference value: 3.8%). In kind it is functional.
Series [20] concerns Huh-7. The series can be described thus: Induction of morphological changes in human Huh-7 cells assessed as adherent cells at upto 25 nM incubated for 48 hrs by bright field imaging analysis. In kind it is functional, cell-based.
The test system of series [21] is Hep 3B2. The series is described as follows: Induction of apoptosis in human Hep3B cells assessed as necrotic cells at 25 nM incubated for 48 hrs by Annexin V-FITC/PI staining based flow cytometry method (reference value: 0.7%). In kind it is functional.
Series [22] deals with Huh-7. The series is described as follows: Induction of apoptosis in human Huh-7 cells assessed as upregulation of cleaved caspase-3 level […] incubated for 48 hrs in presence of 4,6-dimorpholino-N-(4-nitrophenyl)-1,3,5-triazin-2-amine by immunoblot analysis. Format: functional, cell-based.
Series [23] is described as follows: Toxicity in mouse assessed as effect on heart at 5 mg/kg,ip administered every second day for 3 weeks by H and E staining based microscopic method. Format: organism-based. The conditions noted are these: in vivo, 504 h.
The subject of series [24] is Huh-7. The series is described as follows: Induction of autophagic flux in human Huh-7 cells assessed as rescue of LC3-I accumulation at 25 uM incubated for 48 hrs in presence of chloroquine by Western blot analysis. Format: functional, cell-based.
For series [25], the system named is Huh-7. The series is described as follows: Induction of apoptosis in human Huh-7 cells assessed as upregulation of bax level […] incubated for 48 hrs in presence of 4,6-dimorpholino-N-(4-nitrophenyl)-1,3,5-triazin-2-amine by immunoblot analysis. In kind it is functional, cell-based.
The subject of series [26] is Huh-7. The series is described as follows: Induction of apoptosis in human Huh-7 cells assessed as increase in PARP expression at upto 25 nM incubated for 48 hrs by Western blot analysis. In kind it is functional, cell-based.
Series [27] has as its system Hep 3B2. The series is described as follows: Induction of apoptosis in human Hep3B cells assessed as viable cells at 25 nM incubated for 48 hrs in presence of 4,6-dimorpholino-N-(4-nitrophenyl)-1,3,5-triazin-2-amine by Annexin V-FITC/PI staining based flow cytometry method (Rvb =95.7%). In kind it is functional. The conditions noted are these: read-out: Activity.
Series [28] relates to Huh-7. The series can be described thus: Induction of apoptosis in human Huh-7 cells assessed as necrotic cells at 25 nM incubated for 48 hrs in presence of chloroquine by Annexin V-FITC/PI staining based flow cytometry method (reference value: 1.0%). In kind it is functional.
In series [29] the test system is Hep 3B2. The series is described as follows: Induction of apoptosis in human Hep3B cells assessed as increase in cleaved PARP level at 25 nM incubated for 48 hrs in presence of chloroquine by immunoblot analysis. In kind it is functional, cell-based.
Series [30] relates to Hep 3B2. The series can be described thus: Induction of apoptosis in human Hep3B cells assessed as viable cells at 25 nM incubated for 48 hrs by Annexin V-FITC/PI staining based flow cytometry method (reference value: 94.0%). Format: functional. The conditions noted are these: read-out: Activity.
Series [31] deals with Hep 3B2. The series is described as follows: Antitumor activity against human Hep3B cells xenografted in nude mouse model assessed as decrease in tumor weight at 5 mg/kg,ip administered every second day for 3 weeks by vernier caliper method. Format: functional, organism-based.
Series [32] has as its system Hep 3B2. The series can be described thus: Antitumor activity against human Hep3B cells xenografted in nude mouse model assessed as upregulation of LC3 II expression at 5 mg/kg,ip administered every second day for 3 weeks by Western blot analysis. Format: functional, organism-based.
Series [33] deals with Hep 3B2. The series can be described thus: Induction of apoptosis in human Hep3B cells assessed as early apoptotic cells at 15 nM incubated for 48 hrs by Annexin V-FITC/PI staining based flow cytometry method (reference value: 3.9%). Format: functional.

With `CCN(CC)CCCC(C)Nc1ccnc2cc(Cl)ccc12` (stereo not drawn) [CHLOROQUINE], the result in series [1], in series [2] and in series [3] was Active. The Activity in series [4] is listed as 3.4%.

Turning to `C[C@]12CC[C@H](O)C[C@H]1CC[C@@H]1[C@@H]2[C@H](O)C[C@]2(C)[C@@H](c3ccc(=O)oc3)CC[C@]12O` [GAMABUFOTALIN], the Activity result in [5] is “Dose-Dependent Effect”; in series [6], 13.7%; in [7], “Dose-Dependent Effect”; in series [12], 60.8%; in [15], 14.3%; in [16], 57.1%. Moreover, the Activity in [17] is given as 10.9%; in [18], 0.3%; in series [19], 7.7%; in series [21], 0.5%; in series [23] it was “Non-Toxic”; in series [28] it was 3.4%. In addition, the Activity in [33] worked out at 6.8%. Further, the viability at 0.025 µM came out at 76.8% in [8], 67.2% in [27] and 71.4% in series [30]. Moreover, the outcome in series [9], in [10], in series [11], in [13], in series [14] and in series [20] was Active. Further, the outcome in series [22], in [24], in [25], in series [26], in series [29] and in [31] was Active. For the same compound, in [32], the result was Active.
